Experimental findings from patent publication US6548533B2, “Ureido substituted pyrrolidines” (Aventis Pharma Limited, priority 1999, dated 2003) are described below.

One may read the melting point as the temperature of the solid-liquid transition.

Molecules are shown by their SMILES.

In turn, `COc1cc(CC(=O)Nc2ccc(C3CN(C(C)=O)CC3C(=O)O)cc2)ccc1NC(=O)Nc1ccccc1C` (centres unmarked) [Example 1, 1-Acetyl-4-(4-{2-[3-methoxy-4-(3-o-tolyl-ureido)-phenyl]-acetylamino}-phenyl)-pyrrolidine-3-carboxylic Acid] registered a melting point of 242 °C.
The figure for `COc1cc(CC(=O)Nc2ccc(C3CN(C(=O)c4ccccc4)CC3C(=O)O)cc2)ccc1NC(=O)Nc1ccccc1C` (centres unmarked) [Example 2, 1-Benzoyl-4-(4-{2-[3-methoxy-4-(3-o-tolyl-ureido)-phenyl]-acetylamino}-phenyl)-pyrrolidine-3-carboxylic Acid] is 248 °C; for `COc1cc(CC(=O)Nc2ccc(C3CN(C(=O)CCC(=O)O)CC3C(=O)O)cc2)ccc1NC(=O)Nc1ccccc1C` (centres unmarked) [Example 3, 1-(3-Carboxy-propionyl)-4-(4-{2-[3-methoxy-4-(3-o-tolyl-ureido)-phenyl]-acetylamino}-phenyl)-pyrrolidine-3-carboxylic Acid] it is 184 °C.
The figure for `COc1cc(CC(=O)Nc2ccc(C3C(C(=O)O)CCN3C(=O)c3ccccc3)cc2)ccc1NC(=O)Nc1ccccc1C` (centres unmarked) [Example 4, 1-Benzoyl-2-(4-{2-[3-methoxy-4-(3-o-tolyl-ureido)-phenyl]-acetylamino}-phenyl)-pyrrolidine-3-carboxylic Acid] is 155 °C (dec.); for `COc1cc(CC(=O)Nc2ccc(C3CN(Cc4ccccc4)CC3C(=O)O)cc2)ccc1NC(=O)Nc1ccccc1C` (centres unmarked) [Example 5, 1-Benzyl-4-(4-{2-[3-methoxy-4-(3-o-tolyl-ureido)-phenyl]-acetylamino}-phenyl)-pyrrolidine-3-carboxylic Acid] it is 255 °C.
